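Briefly, cells in 96-well plates were exposed to five compound concentrations for 48 h, and endpoints were estimated by linear interpolation. Here, GI50 denotes the concentration required for 50% inhibition of growth.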 Active and inactive are the calls of the source. Rule as the data show it: active = GI50 up to about 1.1 µM and inactive = higher.

Some test systems named below: SK-MEL-2; RXF 393; MDA-MB-435; U-251; EKVX; OVCAR-4; TK-10; SK-MEL-5; SNB-19; 786-0; SF-295; NCI-H522; UACC-62; MCF7; UO-31; IGROV-1; HCT-116; NCI-H460; ACHN.
Common to all, as to assay: DTP human tumour cell line panel, 48 h

In general, GI50 refers to the concentration at which growth is held to half of that of the control. For `COc1ccc(/C=C2\N=C(SC)NC2=O)cc1`, the GI50 in the assay on SK-MEL-2 is > 100 µM (inactive); in the assay on RXF 393, 67.3 µM (inactive); with MDA-MB-435 it was 91.8 µM (inactive); in the assay on U-251 it was 90.6 µM (inactive); with EKVX, 30.4 µM (inactive); in the assay with OVCAR-4, 71.1 µM (inactive). Further, the GI50 with TK-10 was 86.1 µM (inactive); in the assay on SK-MEL-5, 53.6 µM (inactive); with SNB-19 it was 38.5 µM (inactive); with 786-0 it was > 100 µM (inactive); with SF-295 it was > 100 µM (inactive); with NCI-H522 it was 69 µM (inactive). The GI50 in the assay with UACC-62 is 70.3 µM (inactive); in the assay with MCF7 it was 70.8 µM (inactive); in the assay on UO-31 it was 21.2 µM (inactive); in the assay on IGROV-1, 56.5 µM (inactive); with HCT-116, > 100 µM (inactive).
Regarding `Cc1cc([N+](=O)[O-])c(C)c(Br)c1C`, the GI50 is > 100 µM (inactive) in the assay on SK-MEL-2; 60.5 µM (inactive) in the assay with RXF 393; > 100 µM (inactive) with NCI-H460; > 100 µM (inactive) in the assay on MDA-MB-435; > 100 µM (inactive) in the assay on U-251; 70.8 µM (inactive) in the assay with EKVX. Further, the GI50 in the assay with OVCAR-4, with TK-10, with SK-MEL-5, in the assay with SNB-19, with 786-0 and in the assay with SF-295 was > 100 µM (inactive) in each case. Moreover, the GI50 with ACHN, in the assay with NCI-H522, with UACC-62, with MCF7, with UO-31 and with IGROV-1 was > 100 µM (inactive) throughout. Also, the GI50 in the assay on HCT-116 is > 100 µM (inactive).
For the molecule `N#CC1=C2Sc3ccccc3N2[C@H](c2ccccc2)[C@H]2COC(=O)[C@@H]12`, the GI50 in the assay with SK-MEL-2 is 48 µM (inactive); in the assay on RXF 393, 70.3 µM (inactive); in the assay with MDA-MB-435, > 100 µM (inactive); in the assay with U-251 it was 45.2 µM (inactive); with EKVX it was > 100 µM (inactive); in the assay with OVCAR-4, > 100 µM (inactive). Further, the GI50 in the assay on TK-10 was 38.9 µM (inactive); in the assay on SK-MEL-5, > 100 µM (inactive); with SNB-19, > 100 µM (inactive); in the assay with 786-0, > 100 µM (inactive); in the assay on SF-295, > 100 µM (inactive); in the assay with ACHN, > 100 µM (inactive). Further, the GI50 in the assay on NCI-H522 is 11.2 µM (inactive); in the assay on UACC-62, 67.1 µM (inactive); in the assay on MCF7 it was 31 µM (inactive); in the assay with UO-31 it was > 100 µM (inactive); in the assay on HCT-116 it was > 100 µM (inactive).
For `COc1cc2oc(-c3ccc4c(c3)OCO4)c(OC)c(=O)c2c(OC)c1O`, the GI50 with RXF 393 is > 100 µM (inactive); with NCI-H460 it was 64.6 µM (inactive); with MDA-MB-435, 70.3 µM (inactive); in the assay on U-251 it was 38.4 µM (inactive); with EKVX it was 37.6 µM (inactive); with OVCAR-4, 59.3 µM (inactive). Also, the GI50 was 56.4 µM (inactive) with TK-10; 25.4 µM (inactive) in the assay with SK-MEL-5; > 100 µM (inactive) in the assay on SNB-19; 10.9 µM (inactive) in the assay on 786-0; 41.7 µM (inactive) with SF-295; 67.8 µM (inactive) with ACHN. Further, the GI50 in the assay on NCI-H522 was 21.9 µM (inactive); in the assay on UACC-62, 54.3 µM (inactive); with MCF7, 69.7 µM (inactive); with UO-31, 53 µM (inactive); in the assay on IGROV-1 it was 37.5 µM (inactive); with HCT-116, 61 µM (inactive).
In the case of `O=C(Cn1c2c(c3ccccc31)CCCC2)N1CCOCC1`, the GI50 with SK-MEL-2 was > 100 µM (inactive); with NCI-H460, > 100 µM (inactive); in the assay with MDA-MB-435, > 100 µM (inactive); in the assay with EKVX, > 100 µM (inactive); with OVCAR-4, 44.4 µM (inactive); in the assay with TK-10, > 100 µM (inactive). The GI50 in the assay with SK-MEL-5, in the assay with SNB-19, in the assay on 786-0, in the assay with SF-295, in the assay with ACHN and with UACC-62 was > 100 µM (inactive) each time. For the same molecule, the GI50 with MCF7 was > 100 µM (inactive); in the assay on UO-31 it was 25.9 µM (inactive); in the assay on IGROV-1, > 100 µM (inactive); in the assay with HCT-116 it was > 100 µM (inactive).
Take `O=C(N[C@@H](c1ccccc1)[C@@H](O)C(=O)OCc1ccc([N+](=O)[O-])cc1)c1ccccc1`: the GI50 in the assay on SK-MEL-2, in the assay with RXF 393, with NCI-H460, in the assay on MDA-MB-435, in the assay on U-251 and with EKVX was > 100 µM (inactive) in each case. Also, the GI50 in the assay on OVCAR-4 is > 100 µM (inactive); in the assay on TK-10 it was > 100 µM (inactive); in the assay on SK-MEL-5 it was 75.9 µM (inactive); with SNB-19, > 100 µM (inactive); with 786-0 it was > 100 µM (inactive); in the assay with SF-295 it was > 10 µM (inactive). Moreover, the GI50 in the assay on ACHN was > 100 µM (inactive); with NCI-H522, > 100 µM (inactive); with UACC-62 it was > 100 µM (inactive); in the assay with MCF7 it was 84.5 µM (inactive); with UO-31 it was 65.5 µM (inactive); in the assay on IGROV-1, > 100 µM (inactive). The GI50 in the assay on HCT-116 is > 100 µM (inactive).
As to `CC(=O)O[C@H]1CCC2[C@@H]3CCC4Cc5nc6c(nc5C[C@]4(C)C3CC[C@@]21C)CC1CC[C@@H]2C(CC[C@@]3(C)C2CC[C@@H]3C(C)CCCC(C)C)[C@@]1(C)C6` (stereo not given in full), the GI50 in the assay with SK-MEL-2, in the assay with RXF 393, in the assay on NCI-H460, with MDA-MB-435, in the assay on U-251 and in the assay on EKVX was > 100 µM (inactive) throughout. The GI50 with OVCAR-4, in the assay on TK-10, in the assay with SK-MEL-5, in the assay with SNB-19, in the assay on 786-0 and with SF-295 was > 100 µM (inactive) in each case. For the same molecule, the GI50 in the assay on ACHN, in the assay with UACC-62, with MCF7, in the assay on UO-31, in the assay with IGROV-1 and with HCT-116 was > 100 µM (inactive) in each case.
In the case of `CC(/C=N\NC(=S)N(C)C)=N/NC(=S)N(C)C`, the GI50 is 0.303 µM (active) with SK-MEL-2; 0.586 µM (active) in the assay with RXF 393; 0.0412 µM (active) in the assay on NCI-H460; 0.881 µM (active) with MDA-MB-435; 0.29 µM (active) in the assay on U-251; 0.832 µM (active) in the assay with EKVX. The GI50 in the assay on OVCAR-4 was 5.16 µM (inactive); in the assay on TK-10 it was 0.507 µM (active); in the assay on SK-MEL-5, 0.505 µM (active); in the assay on SNB-19 it was 0.721 µM (active); in the assay with 786-0, 0.509 µM (active); in the assay with SF-295, 0.147 µM (active). The GI50 is 0.113 µM (active) in the assay with ACHN; 0.243 µM (active) in the assay with NCI-H522; 0.764 µM (active) in the assay with UACC-62; 0.759 µM (active) with MCF7; 0.158 µM (active) in the assay on UO-31; 0.575 µM (active) in the assay with IGROV-1. Also, the concentration for 50% growth inhibition (GI50) in the assay on HCT-116 is 0.117 µM (active).
Consider `O=c1c(-c2ccccc2Cl)coc2cc(F)ccc12`, for which the GI50 in the assay on SK-MEL-2 is 66.4 µM (inactive); in the assay with RXF 393 it was 22.1 µM (inactive); with NCI-H460 it was 37.6 µM (inactive); in the assay with MDA-MB-435 it was 2.1 µM (inactive); in the assay on U-251, 10.2 µM (inactive); in the assay with EKVX it was 52.6 µM (inactive). In addition, the GI50 in the assay with OVCAR-4 is > 100 µM (inactive); in the assay on TK-10 it was 47.9 µM (inactive); with SK-MEL-5 it was 27.3 µM (inactive); in the assay on SNB-19 it was 22.9 µM (inactive); in the assay on 786-0, 30.4 µM (inactive); in the assay with SF-295, 19.4 µM (inactive). Besides, the GI50 in the assay with ACHN was > 100 µM (inactive); in the assay on NCI-H522 it was 10.6 µM (inactive); with UACC-62, 18.2 µM (inactive); with MCF7 it was 21.7 µM (inactive); in the assay with UO-31 it was 20.4 µM (inactive); in the assay with IGROV-1, 6.07 µM (inactive). In the assay on HCT-116, the GI50 was 31.8 µM (inactive).
As for `CC(=O)C(C(=O)c1ccc(C)cc1)[C@@H]1OC(C)(C)O[C@@H]1[C@H]1COC(C)(C)O1` (stereo not given in full), the GI50 in the assay on SK-MEL-2 was 8.99 µM (inactive); with RXF 393, 9.62 µM (inactive); in the assay with NCI-H460, 25.1 µM (inactive); in the assay on MDA-MB-435 it was 9.75 µM (inactive); in the assay with U-251, 6.41 µM (inactive); with EKVX, 23.9 µM (inactive). The GI50 was 4 µM (inactive) with OVCAR-4; 30.3 µM (inactive) in the assay on TK-10; 12.1 µM (inactive) with SK-MEL-5; 15.7 µM (inactive) with SNB-19; 6.4 µM (inactive) in the assay on 786-0; 37.7 µM (inactive) in the assay with SF-295. The GI50 in the assay on ACHN was 9.59 µM (inactive); in the assay with NCI-H522, 4.89 µM (inactive); with UACC-62 it was 10.9 µM (inactive); in the assay with MCF7, 3.48 µM (inactive); in the assay with UO-31 it was 12.7 µM (inactive); with IGROV-1, 12.7 µM (inactive). Also, in the assay on HCT-116, the GI50 was 3.72 µM (inactive).
Regarding `O=c1[nH]nc(Cc2ccccc2)n1/N=C/c1ccccc1O`, the GI50 in the assay with SK-MEL-2 is > 100 µM (inactive); in the assay on RXF 393, 23.4 µM (inactive); in the assay with NCI-H460, > 100 µM (inactive); in the assay with MDA-MB-435, > 100 µM (inactive); with U-251, 45 µM (inactive); in the assay on EKVX, > 100 µM (inactive). The GI50 is > 100 µM (inactive) in the assay on OVCAR-4; > 100 µM (inactive) with TK-10; > 100 µM (inactive) in the assay with SK-MEL-5; 79.8 µM (inactive) in the assay with SNB-19; 41.5 µM (inactive) in the assay with 786-0; 57.7 µM (inactive) in the assay on SF-295. Besides, the GI50 is > 100 µM (inactive) in the assay on ACHN; > 100 µM (inactive) in the assay on NCI-H522; > 100 µM (inactive) in the assay with UACC-62; > 100 µM (inactive) in the assay with MCF7; > 100 µM (inactive) with UO-31; 83.8 µM (inactive) in the assay on IGROV-1. Moreover, in the assay on HCT-116, the GI50 is > 100 µM (inactive).

The record behind these values is ChEMBL document CHEMBL1201862, “PubChem BioAssay data set” (2004).
